Data on three molecules can be found in patent US11933781B2, “Fibrosis model and methods of use thereof” (The Regents of the University of Colorado, priority 2020, dated 2024).

Entries after “also recorded” stand apart in the source; their conditions may differ.

Test [1] relates to primary human lung fibroblasts (HLFs). Kind of test: Activation of human lung fibroblasts on 3 kPa hydrogels by HBEC conditioned media. The following applies: HLFs in IPF conditioned HBEC media supplemented with inhibitor. Type of test: cell-based. The procedure: Culture and treatment of HLFs: Primary human lung fibroblasts (HLFs) were obtained from control lungs not suitable for transplantation at National Jewish Health. Briefly, pieces of tissue were placed into a tissue-culture dish and weighed down by a coverslip. Cells were cultured in DMEM (Corning, Corning, New York, 10-013-cv) supplemented with L-glutamine (25-005-cl), penicillin/streptomycin (Corning, Corning, New York, 30-002-c1), and 10% fetal bovine serum (ATCC®, Manassas, Virginia, 30-2020). These fibroblasts were then sub-cultured in t-75 flasks. All HLFs used in this study (N=4) were seeded at passage 3. […]
Quantitative RT-PCR Analysis: Total RNA was extracted using RNeasy® Mini kit (Qiagen, Hilden, Germany) and quantified by NanoDrop™ (ThermoFisher Scientific™, Waltham, Massachusetts).Reverse transcription was completed using the High Capacity cDNA Reverse Transcription Kit (Applied Biosystems™, Thermo Fisher Scientific™, Waltham, Massachusetts). […]
Immunofluorescence and cell number quantification for HLF experiments: For fluorescence quantification, (i.e., vimentin or alpha-SMA) images were all processed using the same settings. Fluorescence intensity was determined by channel separation and measurement of mean gray value for the field and normalized to total cell number. Cell number was determined by automated counting in ImageJ. […]

Test [2] relates to IPF HBECs. Kind of test: Induction of the unjammed-to-jammed transition (UJT) in IPF HBECs. Format: cell-based, human. The conditions noted are these: day 14 IPF HBECs. The text has this:
(§1) Epithelial Cell Culture: Primary human bronchial epithelial cells (HBECs) were obtained from two sources (1) provided by Dr. Hong Wei Chu at National Jewish Health, or (2) lung transplant collection at the University of Colorado Hospital (IRB protocol: 11-1664 or 18-0572). Epithelial cells from bronchial brushes or CT-guided dissection were expanded to passage 2 before being cultured at air liquid interface (ALI). Control (N=11), IPF (N=6), and COPD (N=3) were age matched and controls had no history of chronic lung disease (Table 1). Cells were seeded on 24-Transwell plates (Corning, Corning, New York, 3470) coated with type I collagen (Corning, Corning, New York, 354236) and maintained under submerged conditions for five to seven days until the cells reached confluence. Culture media was a 1:1 mixture of DMEM and BEBM (Lonza, Basel, Switzerland, CC170) supplemented with retinoic acid (Sigma-Aldrich, Germany, R-2625) nystatin (Sigma-Aldrich, Germany N1638), and bovine serum albumin (FisherSci, Thermo Fisher Scientific, Waltham, Massachusetts BP9703100). Once confluent, apical media was removed and maintained at ALI. HBECs began recapitulating the in vivo airway, with production of mucus (6-9 days after establishing ALI) and development of a pseudostratified epithelium. Cells were switched to a starvation media (lacking supplemental epidermal growth factor, hydrocortisone, and bovine pituitary extract) 24 hours prior to experimentation.
(§2) For inhibitor, activator, and ligand treatments HBECs were cultured in a starvation media in the absence of EGF, hydrocortisone, and bovine pituitary extract for 24 hours prior to treatment initiation. Cells were then treated for 2-4 hours (with exception of AREG neutralizing antibody which was maintained in the culture media), media was aspirated, the wells were washed with warm PBS and then replaced with fresh starvation media without inhibitor/activator/ligand present, and subsequently imaged. For experiments that required subsequent media changes (96 hour) cells fresh starvation media was changed 48 hours afterwards.
(§3) Live Cell Imaging and Dynamics Measurement: To assess cellular dynamics, time-lapse microscopy and subsequent analysis were completed. Two imaging schemes were utilized: (1) images were taken every 5 minutes for 200 minutes during HBEC differentiation; (2) images were taken every 20 minutes for 48, 96, or 144 hours after HBEC experimental intervention. Phase contrast images were acquired on a Keyence BZ-X810 with a stage incubator (37° C., 5% CO2). Dynamic analysis followed previously published workflows (10-12, 22). Briefly, using phase contrast images instantaneous velocities were mapped by particle image velocimetry utilizing open source PIVLab on MATLAB. Velocity fields were obtained with 2 passes (64×64 and 32×32 pixel size interrogation window with 50% overlap) with a pixel size of 0.75488 μm using a Fast Fourier Transformation method. Trajectories from the PIV were seeded onto a grid and obtained via forward-integration of subsequent fields. These values were then used to determine mean-squared-displacement (MSD) and self-overlap order parameter (Q): MSD(Δt)= ? ri(t+Δt)−ri(t)|2 ? and Q(Δt)=N−1ΣwiNi=1 as previously published. Instantaneous room mean squared velocity (VRMS) of the monolayer was obtained as previously published: VRMS(t)=√1MΣ ? |v(t)2 ? jMj=1
Cell Shape Analysis: Cell shape measurements were achieved via cell border delineation by F-actin immunofluorescence. Images were segmented utilizing SeedWater Segmenter. Similar to previously published workflows, we segmented images which were subsequently analyzed in ImageJ for the shape index (q=Perimeter√Area) and aspect ratio (major and minor axis) for all cells within a given field of view. For each experimental condition an n≥3 was used with at least 3 independent wells per donor per treatment condition. […]

For test [3], the system named is proximal, jammed cultures. Kind of test: IL-6 family cytokine induced unjamming of proximal airway epithelial cultures. Type of test: cell-based, human. The conditions noted are these: proximal cultures pre-treated, then stimulated with IL-6 family cytokines. The procedure: as §3, with “These values were then used to determine mean-squared-displacement (MSD) and self-overlap order parameter (Q): MSD(Δt)= ? ri(t+Δt)−ri(t)|2 ? and Q(Δt)=N−1ΣwiNi=1 as previously published. Instantaneous room mean squared velocity (VRMS) of the monolayer was obtained as previously published: VRMS(t)=√1MΣ ? |v(t)2 ? jMj=1” left out
Cell Shape Analysis: Cell shape measurements were achieved via cell border delineation by F-actin immunofluorescence. […] Similar to previously published workflows, we segmented images which were subsequently analyzed in ImageJ for the shape index (q=Perimeter√Area) and aspect ratio (major and minor axis) for all cells within a given field of view. […]

Another test concerns COPD HBECs. The test is described as follows: Induction of jamming in COPD HBECs. Type of test: cell-based, human.
Source text: as §1
as §2, with “afterwards. […]” for “afterwards.”

Test [4] has as its system IPF HBECs. Kind of test: Gene expression of ERBB receptors, YAP target genes and MUC5B in IPF HBECs. Type of test: cell-based, human. The conditions noted are these: IPF HBECs after inhibition. On the procedure: Quantitative RT-PCR Analysis: Total RNA was extracted using RNeasy® Mini kit (Qiagen, Hilden, Germany) and quantified by NanoDrop™ (ThermoFisher Scientific™, Waltham, Massachusetts).Reverse transcription was completed using the High Capacity cDNA Reverse Transcription Kit (Applied Biosystems™, Thermo Fisher Scientific™, Waltham, Massachusetts). Gene expression was analyzed by using TaqMan® Advanced Master Mix (Thermo Fisher Scientific™, Waltham, Massachusetts and TaqMan® assays. They were subsequently run in triplicate on the ViiA™ 7 Real-Time machine (Thermo Fisher Scientific™, Waltham, Massachusetts). Primer IDs were: β-ACTIN, Hs01060665_g1; MUC5B, Hs00861595_m1; MUC5AC, Hs01365616_m1; EGFR, Hs0176090_m1; ERBB2, Hs01001580_m1; ZEB1, Hs00232783_m1; SNAI1, Hs00195591_m1; VIM, Hs00185584_m1; CTGF, Hs00170014_m1; AREG, Hs00950669_m1; FN1, Hs01549976_m1; PDGFRA, Hs00998018_m1; PDGFA, Hs00234994_m1; PDGFRB, Hs01019589_m1; PDGFB, Hs00966522_m1; TGFBRI, Hs00610320_m1; TGFBI, Hs00998133_m1; COL1A1, Hs00164004_m1; ACTA2, Hs00426835; MMP3, Hs00968305_m1; MMP9, Hs00957562_m1; TIMP1, Hs01092512_g1; and TIMP2, Hs00234278_m1.

Test [5] deals with IPF HBECs. The test is described as follows: YAP immunofluorescence in IPF HBECs. The conditions noted are these: IPF HBECs 48 hours after treatment. Format: cell-based, human. On the procedure: Immunofluorescence staining: Cells were fixed with 4% paraformaldehyde in PBS with calcium and magnesium for 30 minutes at room temperature. Cells were then washed with PBS and subsequently permeabilized (Triton™-X, at 0.1%) and blocked with 5% bovine serum albumin in PBS for 1 hour at room temperature. Cells were then incubated for >16 hours at 4 degrees with primary antibodies. Primary antibodies were aspirated, and cells were washed with PBS+0.1% Tween-20 at room temperature. Cells were then incubated for 1 hour at room temperature with secondary antibodies (1:500) and/or Phalloidin-iFluor™ 488 1:2000. Cells were stained with 4′,6-diamidino-2-phenylindole at 1:20000 (BioLegend®, San Diego, California, 422801). Subsequently, transwell membranes, or hydrogels, were removed from the well and mounted on glass slides with Fluoromount-G® (SouthernBiotech™, Birmingham, Alabama, 0100-01). Slides were then visualized using an Olympus BX63 microscope (Olympus, Tokyo, Japan).
Immunofluorescence and cell number quantification for HBEC experiments: For total fluorescence quantification (i.e., ERBB2), all images were processed in the same manner with the same microscopy settings. To determine mean fluorescence the channel of interest was separated in ImageJ, and the mean gray value was measured for the field of view and normalized by the total number of cells. Cell counting was achieved by taking 40×images and manually counting all nuclei in a field of view (approximately 200-300). The number of cells also expressing the marker of interested were then counted and normalized by the total number of cells per field. For each experiment a biological n≥3 was used with at least 5 fields of view per well and at least 2 wells being counted in total per donor.

Consider `NC(=O)c1ccc(-c2nc(-c3ccc4c(c3)OCO4)c(-c3ccccn3)[nH]2)cc1` [SB431542], for which, in test [1], the fibroblast activation entry is reported as “reduced fibroblast activation”; the “rescue of increase in cell number and pro-fibrotic gene expression” value is on record as “none of these treatments alone were able to fully rescue the increase in cell number or the associated pro-fibrotic gene expression”.

Turning to `O=[N+]([O-])c1ccc2c(c1)S(=O)(=O)C=C2` [Stattic], the “induction of the UJT (jamming) in IPF epithelia” value with IPF HBECs [2] was “did not induce the UJT”. Moreover, in test [3], the “effect of inhibitor pre-treatment on IL-6 family cytokine induced unjamming” value is given as “JAK/STAT signaling was dispensable for IL-6 family cytokine induced unjamming in proximal cultures”.

Take Verteporfin: in the test with IPF HBECs [2], the “induction of the UJT (jamming) in IPF epithelia” value was “halted migration and induced a cobblestone appearance in the epithelia”. Besides, the “induction of jamming in COPD epithelia” value in the test with COPD HBECs is on record as “not responsive to ERBB-YAP inhibition”. Further, the “transcription of ERBB receptors, YAP target genes and MUC5B” value in the test on IPF HBECs [4] is “reduced the transcription of ERBB receptors, YAP target genes, and MUC5B nearly back to control levels; also recorded: decreases 738 ERBB-YAP target gene expression”. In the test with IPF HBECs [5], the YAP nuclear exclusion entry is “results in YAP nuclear exclusion”. For the same molecule, the “effect of inhibitor pre-treatment on IL-6 family cytokine induced unjamming” value in test [3] was “SRC and YAP were essential for the acquisition of this fluid-like phenotype”.
